Values quoted from earlier work in patent US20260373079A1, “USE OF LONG-ACTING FLUTICASONE PROPIONATE INJECTABLE SUSPENSIONS FOR TREATING AND PREVENTING INFLAMMATIONS OF THE GASTROINTESTINAL TRACT” (EUPRAXIA PHARMACEUTICALS INC., priority 2022, published 2026).
One block for each molecule: values may come before it.

Key:
[1] = for first pass metabolism, relative to fluticasone: in words
[2] = EoE patients
[3] = treatment of EoE; subcutaneous; weekly dosing recommended

first pass metabolism, relative to fluticasone [1]: substantially lower
Molecule: C[C@H]1C[C@H]2[C@@H]3CCC4=CC(=O)C=C[C@]4(C)[C@@]3(Cl)[C@@H](O)C[C@]2(C)[C@@]1(O)C(=O)CO [beclomethasone]

Molecule: Dupixent: a monoclonal antibody that is administered subcutaneously
upper respiratory tract infections [2]: 18 % of patients
effective in patients [3]: 60 % of patients

first pass metabolism, relative to fluticasone [1]: substantially lower
Molecule: C[C@]12C=CC(=O)C=C1CC[C@H]1[C@@H]3C[C@@H](O)[C@](O)(C(=O)CO)[C@@]3(C)C[C@H](O)[C@@]12F [triamcinolone]

first-pass metabolism ([1]; by the liver): ~ 99%
Molecule: CCC(=O)O[C@]1(C(=O)SCF)[C@H](C)C[C@H]2[C@@H]3C[C@H](F)C4=CC(=O)C=C[C@]4(C)[C@@]3(F)[C@@H](O)C[C@@]21C [fluticasone]
